Article PMC3115501 (Archives of biochemistry and biophysics, 2011)
Marks after values point to notes of the source that are not given here.

Experiments:
CYP3A4 [1] = biological target: T1, CYP3A4 (Homo sapiens, UniProt P08684, S18F); details: cited from earlier work
CYP3A4 [2] = details: cited from earlier work
3A4 = 3A4 in the presence of testosterone, reduction by NADPH/P450 reductase; cited from earlier work
CYP3A4 [3] = biological target: T1, CYP3A4; assay: Redox potential measurements by cyclic voltammetry of purified CYP3A4; details: 11 μM 3A4 complexed with 200 μM TST or 100 μM compound 1

| Compound | rate of dissociation from the low-spin complex (CYP3A4 [1]) [s⁻¹] | kcat (CYP3A4 [2]) [s⁻¹] | reduction rate, reported value (3A4) [s⁻¹] | ks (rate of electron transfer / rate constant for reduction) (CYP3A4 [3]) [s⁻¹] | α (electron transfer coefficient) (CYP3A4 [3]) | E^0 (formal potential) (CYP3A4 [3]; Equation 1) | ΔEp, ½ (CYP3A4 [3]; equation 2) | ks (rate of electron transfer / rate constant for reduction) (CYP3A4 [3]; listed as TST) [s⁻¹] |
| --- | --- | --- | --- | --- | --- | --- | --- | --- |
| CCC(C)n1ncn(-c2ccc(N3CCN(c4ccc(OCC5COC(Cn6cncn6)(c6ccc(Cl)cc6Cl)O5)cc4)CC3)cc2)c1=O (centres unmarked) [Itraconazole, itraconazole] | 0.002 | 0.0045 |  |  |  |  |  |  |
| C[C@]12CC[C@H]3[C@@H](CCC4=CC(=O)CC[C@@]43C)[C@@H]1CC[C@@H]2O [Testosterone] |  |  | 21 | 5.6 | 0.396 | -189 (3) ^e mV | 157 (6) mV | 5.56 |
